From a melting point compilation (Tetko et al.; mined from patent text by program, amines drawn as free bases though some values may be those of a salt)

melting point	Structure (SMILES)
218 to 220 °C	CC(=O)OC1CCC2(C)C(=CCC3C2CCC2(C)C(n4ccnc4)=C(C=O)CC32)C1 (stereo unspecified)
78 to 80 °C	CC(C)(O)C1CCC(CNC(=O)c2cccnc2Oc2ccc(F)cc2)CC1 (stereo unspecified)
269 to 271 °C	O=Cc1c2ccc(Cl)cc2c(Cl)c2ccc(Cl)cc12
184 to 185 °C	O=C(Nc1cccnn1)N1CCN(c2nccc(-c3ccc(F)cc3F)n2)CC1
190 to 191 °C	CC1C(OC(=O)CCCCCCCCC(=O)OC2C(C)C(c3ccccc3)N(O)C(c3ccccc3)C2C)C(C)C(c2ccccc2)N(O)C1c1ccccc1 (stereo unspecified)
103 to 105 °C	COC(=O)c1cc(C)c(C(OC(=O)C(C)NS(=O)(=O)c2ccc(C)cc2)c2cc(-n3ccnc3)ccc2C)c(C)c1 (stereo unspecified)
66 to 68 °C	CON=C(C(=O)OC)c1cccc(OC)c1
49 to 50 °C	CC(C)(C)C1(O)CCCCC1
100 to 105 °C	CC(C)(C)OC(=O)N1CCc2c(cc(O)c(O)c2F)C(c2ccc(O)cc2)C1 (stereo unspecified)
137 to 138 °C	CCOC(=O)Cc1c(C)nc2c3cccc(Cl)c3ccn12
98 to 100 °C	O=C(CCc1ccc(OCCS(=O)(=O)CCOC(c2ccc(Cl)cc2)c2ccc(Cl)cc2)cc1)C(F)(F)F
148 to 150 °C	N#Cc1ccn(O)c1-c1ccc(Cl)cc1
150 to 151 °C	CC1=CC(=O)C(C(=O)Cc2ccccc2)C(=O)O1 (stereo unspecified)
120 °C	O=C(O)CN(CCN(CC(=O)O)C(Cc1ccccc1)C(=O)O)CC(=O)O (stereo unspecified)
83 to 84 °C	Cc1ccc(S(=O)(=O)OCC2COc3ccccc3C2)cc1 (stereo unspecified)
126 to 129 °C	CCOC(=O)COc1ccc(C(=O)Nc2cccc(Cl)c2Cl)cc1
79.8 to 80 °C	COC1=C(Cl)C(=O)C(OC)=C(CCCCCC2=C(OC)C(=O)C(Cl)=C(OC)C2=O)C1=O
72 to 73 °C	C(=CCN(CC1CCCCC1)CC1CCCCC1)CN(CC1CCCCC1)CC1CCCCC1
140 °C	O=C(O)CSSc1ccc([N+](=O)[O-])cc1C(Cl)(Cl)Cl
119 to 121 °C	c1ccc2cc(CSCc3ccc4ccccc4c3)ccc2c1
173 to 174 °C	NC1=Nc2ncccc2OC1
90 to 96 °C	Nc1cc(Cl)cc(Cl)c1C(=O)NCc1ccccc1
136 to 137 °C	COC(=O)c1nc(-c2ccccc2)n(-c2ccc(Cl)cc2)n1
> 300 °C	Cn1c2ccc(Cl)cc2c2c3ccccc3c(=O)[nH]c21

melting point	Structure (SMILES)
234 to 236 °C	CC(C)(C)C(NC(=O)c1cccc(I)c1)Nc1c(Nc2cccnc2)c(=O)c1=O (stereo unspecified)
244 to 245 °C	Cc1oc(C=Cc2ccc(Cl)cc2)nc1C(=O)O
163 to 165 °C	CN(C)CC1CCCCN1CC(=O)N1c2ccccc2NC(=O)c2c1ccn2C (stereo unspecified)
217 °C	CC1(C)[C@@H](C(=O)O)[C@@H]1C(=O)O (relative stereo)
90 to 92 °C	CN(C)c1cc(CO)cc(N(C)C)c1N1CCCCC1
91.5 to 92 °C	CCOC(=O)c1cccc(-c2ccc(C#N)cc2)c1
151 to 153 °C	Cc1nc(C)n(-c2cc([C@@H]3C[C@H]3c3nc4ccccc4n3C)nc(C(F)(F)F)n2)n1 (relative stereo)
123 to 124 °C	O=C(CCc1cccnc1)NC(Cc1c[nH]c2ccccc12)C(=O)CCc1cc(C(F)(F)F)cc(C(F)(F)F)c1 (stereo unspecified)
92 to 94 °C	CN1c2ccncc2NC(CCc2ccccc2)c2cccn21 (stereo unspecified)
102 to 105 °C	ON=CCOc1ccc(Oc2ccccc2)cc1
170 to 173 °C	COc1ccc(-c2cc(C)cn2-c2ccc(S(N)(=O)=O)cc2)cc1F
88 to 97 °C	NC1=NC(c2ccc(OC(F)(F)F)cc2)(c2cccc(-c3cccnc3F)c2)C2=NCCCCN12 (stereo unspecified)
124 to 127 °C	C=C1C(=CC=C2CCCC3(C)C2CCCC3C(C)CCCC(C)(C)O)CC(O)CC1O (stereo unspecified)
92 to 93 °C	NS(=O)(=O)OCCOc1ccc(O)cc1
162 to 164 °C	CC(C)C(NC(=O)OCc1ccccc1)C(=O)Nc1nncs1 (racemic)
231 to 232 °C	COC(=O)c1ccc(Nc2ccc(C#N)cc2NC(C)=O)cc1
62.5 to 65.5 °C	CN1c2ccccc2CC1COc1ccc(CC2SC(=O)N(C(c3ccccc3)(c3ccccc3)c3ccccc3)C2=O)cc1 (stereo unspecified)
52 to 54 °C	O=C(CN1C(=O)CC1Sc1ccc(Cl)cc1)NCCCCCCc1ccccc1 (stereo unspecified)
62 to 64 °C	CC(C)OC(=S)NC1(N=NC(C)(C)C)CCCCC1
99.7 to 99.8 °C	Ic1ccc(N2CCCC2)cc1
79 to 81 °C	OCCN=Cc1ccc(Br)cc1
46 to 49 °C	CCCCCCCCCCCCCCCCNC(=O)C=CC(=O)O
228 to 230 °C	Cc1ccc(-c2cc(C(N)=O)c(N)s2)cc1
93 to 94.5 °C	CC(SCCS(=O)(=O)N(C)C)c1ccc2c(c1)OCO2 (stereo unspecified)

melting point	Structure (SMILES)
154 to 155 °C	OCCCSc1csc2ccccc12
197 °C	CN(C)S(=O)(=O)c1cccc(NC(=O)c2cnn3c(C(F)F)cc(-c4ccc(C(F)(F)F)cc4)nc23)c1
> 260 °C	Cn1c(=O)oc2cc(N3C[C@H](C(N)=O)OC3=O)ccc21
86 to 87 °C	CCOC(=O)CCCN1CCN(C2=Nc3ccccc3Oc3ccc(Cl)cc32)CC1
139 to 142 °C	COc1ccc2c(c1)CCC(C(=O)Cc1ccccc1)C2C#N (stereo unspecified)
108 to 110 °C	CC1(C)OC(=O)[C@H](CC(=O)O)O1
62 to 63 °C	CCCCCCCCc1c(N)nc(-n2cccn2)nc1CC
79 to 82 °C	Cc1cc2c(c(C)c1C)C(C)(C)CCC2(C)C
48 to 50 °C	OC(Cc1ccc(F)cc1)c1ccc(F)cc1 (stereo unspecified)
135 to 137 °C	O=C(O)COc1ccc2c(c1)Cc1sc(SCCC(c3ccccc3)c3ccccc3)nc1-2
208 to 209 °C	CC(C)CC(NS(=O)(=O)c1ccc(Cl)cc1)C(=O)Nc1ccc(CC(=O)O)cc1 (racemic)
298 to 301 °C	O=C(O)c1ccc(N2C(=O)C(=Cc3ccccc3)SC2=S)cc1
134 to 136 °C	CN1CCC(=C2c3ccccc3COc3ccc(C#N)cc32)CC1
251 to 253 °C	COc1ccnc(CCc2nc3cc(-c4ccc(NS(=O)(=O)c5ccccc5)cc4)cnc3[nH]2)c1
109 to 111 °C	CC1CC(=O)c2cccc(C#N)c21 (stereo unspecified)
193 to 236 °C	CC1(COC2CC3C4CCC5=CC(=O)C=CC5(C)C4(F)C(O)CC3(C)C2(O)C(=O)CCl)CO1 (stereo unspecified)
174 °C	Cc1ccc(C=Cc2ccc(C#CC(C)N(O)C(N)=O)o2)cc1 (stereo unspecified)
41 to 43 °C	C[Si](C)(C)C#Cc1cccc2ccccc12
89 to 92 °C	Cc1cccc(-c2n[nH]cc2-c2ccc(F)c(-c3csc(CO)n3)c2)n1
69 to 71 °C	CCC(C#N)Oc1cccc([N+](=O)[O-])c1Cl (stereo unspecified)
84 to 85 °C	COC1(c2ccc3c(c2)OCO3)CCC(=O)CC1
114 to 116 °C	COc1cc(N)c(Cl)cc1C(=O)NC1CCN(CC2CCN(C(=O)c3ccccc3)CC2)CC1
105 to 106 °C	CCOC(=O)Cc1cccc(S(=O)(=O)c2ccccc2)c1[N+](=O)[O-]
215 °C	CC(C)(C)OC(=O)NCCn1cnc2c(N)nc3ccccc3c21

melting point	Structure (SMILES)
93 °C	COc1ccc(C(=O)C(NC(=O)CCCCCBr)c2ccc(OC)cc2)cc1 (stereo unspecified)
156 to 157 °C	COc1ccc(-c2cc(=O)n(-c3ccccn3)nc2C)cc1
111 to 112 °C	CC(C)n1nc(-c2sc(C(=O)N3CCCCC3)nc2-c2ccccc2)ccc1=O
80 to 83 °C	CCOC(=O)C(=O)C(C#N)Cc1ccccc1 (stereo unspecified)
> 260 °C	O=C1c2cc(Sc3ccccc3)c(Sc3ccccc3)cc2C(=O)c2c1c(O)c1cc(Sc3ccccc3)c(Sc3ccccc3)cc1c2O
92 to 93 °C	Cc1ccc(C2NCCS2)cc1 (stereo unspecified)
100 to 102 °C	O=C(NCCCCCCOC(=O)N1CCC2(CCCC2)CC1)OC1CCN(C(=O)Oc2ccc3oc4ccccc4c3c2)CC1
224 to 227 °C	Cn1ncnc1-c1cc(S(C)=O)c2[nH]c(=O)ccc2c1 (stereo unspecified)
131 to 132 °C	CC(=O)c1cccc2ccc(CC(=O)O)cc12
193 to 194 °C	O=CC(=Cc1cccc(OCc2ccc(Cl)cc2)c1)C(C=O)=Cc1cccc(OCc2ccc(Cl)cc2)c1
185 to 186 °C	COC(=O)c1ccc(C(=O)O)c(NC(=O)C(F)(F)F)c1
172 to 175 °C	ON=C1CCC2(CC1)OC(c1ccccc1)c1ccccc12 (stereo unspecified)
142 to 146 °C	O=C(O)CC1c2ccccc2CCc2cc(Cl)ccc21 (stereo unspecified)
81 to 82.2 °C	C=C1CCn2c(CCc3ccccc3)nc3cccc1c32
122 to 123 °C	CCCSc1nc2cc(C)c(C)cc2[nH]1
95 to 112 °C	COc1cc(C(=O)N2CCC(CCN3CCCN(c4nc5ccccc5n4CCCC(C)=O)CC3)(c3ccccc3)C2)cc(OC)c1OC (stereo unspecified)
156 to 158 °C	N#Cc1ccc(C2(Cc3ccccc3)C(=O)N(CC3CC3)Cc3cncn32)cc1 (stereo unspecified)
121 to 122 °C	CC1CCCCC1N(Cc1ccc(C(=O)NC(C)(C)C(=O)O)cc1)S(=O)(=O)c1ccc(Cl)cc1 (stereo unspecified)
148 to 149 °C	COC(=O)c1cccc(-c2cccc3c2nc(N(C)c2cccc(C(F)(F)F)c2)n3C)c1
197 to 198 °C	COc1ccc(C(=O)Nc2ccc3oc4c(c3c2)CCCC4)cc1
116 °C	CN1CC(c2ccc(Cl)cc2)C(=O)C(c2cccc(C(F)(F)F)c2)C1 (stereo unspecified)
179 to 180 °C	CCn1ncc2c1ncc1c(Cl)nc3cc(C)nn3c12

Structure (SMILES)	melting point
O=C1c2ccccc2C(=O)N1Cc1noc(-c2ncn3c2[C@@H]2CCN2C(=O)c2c-3cccc2C(F)(F)F)n1	243 to 245 °C
CCC1C(C)=NN=C(c2ccc(O)c(OC)c2)c2cc(OC)c(O)cc21 (stereo unspecified)	210 to 212 °C
CC1(c2cn(-c3c(Cl)cc(C(F)(F)F)cc3Cl)nc2C#N)CC1	138 to 139 °C
CCCN1CCC(=O)C(C(c2ccccc2)c2ccccc2)C1 (stereo unspecified)	72 to 76 °C
CN1Cc2c(C(N)=O)ncn2-c2ccccc2C1=O	274 to 275 °C
O=[N+]([O-])c1cccc([N+](=O)[O-])c1F	50 °C
O=C(NC12CC3CC(CC(C3)C1)C2)c1ncn(-c2ccccc2)c1Br	229 to 232 °C
